Key:
[1] = test system: THP-1 cells; test: IL-8 and TNF-α release from THP-1 cells treated with the compound alone or with LPS; type: cell-based, human; conditions: 20 h; for TNF-α release from naive THP-1 cells: agonist alone; for IL-8 release from naive THP-1 cells: MDP 2–200 µM, C12-iE-DAP 2–50 µM; for effect on LPS-induced TNF-α production: agonist 10 µM in combination with 1 ng/mL LPS
Method: THP-1 cells represent a convenient, robust, and reproducible alternative, which enables intra-assay comparison. A consistent protocol is of key importance to evaluate the compounds in a reproducible and unbiased manner. […] Recognition of an NOD1/NOD2 agonist triggers a signaling pathway leading to the activation of NF-κB and the production of pro-inflammatory cytokines (e.g., TNF-α, IL-1β, IL-6, IL-8). To define the optimal experimental conditions, preliminary experiments were conducted with C12-iE-DAP (lauroyl-γ-D-glutamyl-meso-diaminopimelic acid), an acylated derivative of iE-DAP, as a reference NOD1 agonist, and MDP as a NOD2 agonist. For isolated stimulation of NOD2 and NOD1 receptors, increasing concentrations of MDP (2–200 µM) and C12-iE-DAP (2–50 µM) were used, and the exposure time of 20 h was chosen based on previous experiments using THP-1 cells.
Figure 1 Dose-dependent effect of NOD1/NOD2 agonists on IL-8 (A) and TNF-α (B) secretion from THP-1 cells. IL-8 and TNF-α release from THP-1 cells were measured following 20 h treatment with increasing concentrations (up to 200 µM) of either C12-iE-DAP (NOD1 agonist) or MDP (NOD2 agonist). Columns represent means of duplicates ± SD of three independent experiments; * p < 0.05 vs. CTRL (Mann–Whitney test). Synergy of NOD1/NOD2 agonists and LPS (TLR4 agonist) on IL-8 (C) and TNF-α (D) secretion. IL-8 and TNF-α release from THP-1 cells were measured following 20 h treatment with either C12-iE-DAP or MDP, both at 2 and 10 µM, in the presence or absence of increasing concentrations of LPS (1 or 10 ng/mL). Columns represent means of duplicates ± SD of three independent experiments; * p < 0.05 vs. CTRL (Mann–Whitney test).
(§1) For all experiments, THP-1 cells (Istituto Zooprofilattico di Brescia, Brescia, Italy) were diluted to 10^6 cells/mL in RPMI 1640 containing 2 mM L-glutamine, 0.1 mg/mL streptomycin, 100 IU/mL penicillin, 50 μM 2-mercaptoethanol, and supplemented with 10% heat-inactivated fetal calf serum (media) and cultured at 37 °C in 5% CO2. The experiments were carried out on passages 3–12. To evaluate IL-8 and TNF-α production, cultures were set up in 24-well culture plates containing 500 μL of cells. They were pretreated with selected NOD antagonists at increasing concentrations for 1 h before the addition of either MDP or C12-iE-DAP (both at 10 µM) and then incubated for 20 h. Each concentration was tested in duplicate, and untreated cells were exposed to DMSO, which represented the vehicle control (not exceeding 0.2% final concentration). In synergy studies, cells were additionally stimulated with lipopolysaccharide (LPS, from Escherichia coli serotype 0127:B8, Sigma) at a final concentration of 1–10 ng/mL, as indicated in the figure legends. Cell-free supernatants were collected at 20 h by centrifugation at 3000 rpm for 5 min and stored at −80 °C.
(§2) IL-8 and TNF-α release from THP-1 cells were measured in cell-free supernatants obtained by centrifugation at 3000 rpm for 5 min and stored at −80 °C until measurement. IL-8 and TNF-α production were assessed by specific sandwich ELISA (Immunotools, Friesoythe, Germany; eBioScience/R&D Systems, Minneapolis, MN, USA). Results are expressed in pg/mL. The limit of detection was 15.6 pg/mL for IL-8 and 4 pg/mL for TNF-α.

[2] = test system: THP-1 cells; test: LDH leakage cytotoxicity in THP-1 cells; type: cell-based, human; conditions: 20 h
Method: Prior to investigating the effects of selected NOD antagonists on cytokine production, their potential cytotoxicity for THP-1 cells was assessed. Cell viability was assessed by leakage of LDH from damaged cells. LDH is a well-known indicator of cell membrane integrity and cell viability. Cells were treated for 20 h with the compound of interest at concentrations of up to 50 µM. LDH activity was determined in cell-free supernatants using a commercially available colorimetric kit (Takara Bio Inc., Kusatsu, Japan). Results are expressed as OD.

[3] = molecular target: T1, NOD2 (Homo sapiens, UniProt Q9HC29); test: MDP (NOD2 agonist)-induced IL-8 secretion from THP-1 cells; type: cell-based; conditions: 1 h pretreatment, MDP 10 µM, 20 h, read-out: IC50 (NOD2), inhibition of IL-8 release
T1 construct: THP-1 cells also express high levels of native functional NOD1 and NOD2 and respond to NOD stimulation by IL-8 secretion; endogenous in cells; host or cells: THP-1 cells (Istituto Zooprofilattico di Brescia)
Method: as §1, §2
All experiments were performed at least three times, with average values expressed as means ± standard deviation (SD). Statistical analyses were performed using GraphPad Prism 6 (La Jolla, CA, USA). Statistical significance was determined either with the Mann-Whitney or Kruskal-Wallis followed by a post hoc Dunn’s multiple comparison test, as indicated in the figure legends. Differences were considered nonsignificant for p > 0.05, significant (*) for p < 0.05, very significant (**) for p < 0.01 and extremely significant (***) for p < 0.001. IC50 values of NOD1/2 inhibition were calculated by a nonlinear regression model using GraphPad Prism 6 software.

[4] = test system: NOD1; conditions: reporter assay, NOD-overexpressing HEK cells; cited from earlier work
[5] = test system: NOD2; conditions: reporter assay, NOD-overexpressing HEK cells; cited from earlier work
[6] = molecular target: T2, NOD1 (Homo sapiens, UniProt Q9Y239); test: C12-iE-DAP (NOD1 agonist)-induced IL-8 secretion from THP-1 cells; type: cell-based; conditions: 1 h pretreatment, C12-iE-DAP 10 µM, 20 h, read-out: IC50 (NOD1), inhibition of IL-8 release
T2 construct: THP-1 cells also express high levels of native functional NOD1 and NOD2 and respond to NOD stimulation by IL-8 secretion; endogenous in cells; host or cells: THP-1 cells (Istituto Zooprofilattico di Brescia)
T2 sequence (Q9Y239 1-953): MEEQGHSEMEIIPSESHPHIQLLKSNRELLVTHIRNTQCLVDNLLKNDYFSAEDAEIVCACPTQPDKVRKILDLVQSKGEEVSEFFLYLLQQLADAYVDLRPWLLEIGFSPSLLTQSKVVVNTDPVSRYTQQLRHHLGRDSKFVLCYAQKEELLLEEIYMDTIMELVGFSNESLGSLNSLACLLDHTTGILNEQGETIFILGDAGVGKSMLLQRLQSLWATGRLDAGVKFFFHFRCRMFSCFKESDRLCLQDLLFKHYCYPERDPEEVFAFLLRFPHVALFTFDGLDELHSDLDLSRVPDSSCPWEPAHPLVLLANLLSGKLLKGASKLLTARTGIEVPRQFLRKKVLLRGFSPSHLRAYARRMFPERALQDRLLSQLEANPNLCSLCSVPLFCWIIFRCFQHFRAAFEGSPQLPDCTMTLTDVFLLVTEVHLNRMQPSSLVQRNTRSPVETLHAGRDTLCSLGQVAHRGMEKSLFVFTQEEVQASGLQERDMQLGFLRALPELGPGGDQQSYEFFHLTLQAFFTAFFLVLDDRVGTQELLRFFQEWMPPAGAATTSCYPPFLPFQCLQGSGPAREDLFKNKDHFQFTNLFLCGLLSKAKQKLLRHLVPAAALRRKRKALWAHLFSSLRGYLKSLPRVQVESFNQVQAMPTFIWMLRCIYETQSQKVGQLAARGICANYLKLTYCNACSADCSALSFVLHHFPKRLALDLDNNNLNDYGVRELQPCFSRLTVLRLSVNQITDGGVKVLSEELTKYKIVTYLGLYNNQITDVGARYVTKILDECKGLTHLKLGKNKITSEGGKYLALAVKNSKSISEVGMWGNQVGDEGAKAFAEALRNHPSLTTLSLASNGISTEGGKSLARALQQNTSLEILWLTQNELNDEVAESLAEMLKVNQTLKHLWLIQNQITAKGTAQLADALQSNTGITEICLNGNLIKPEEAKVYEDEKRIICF
Method: For all experiments, THP-1 cells (Istituto Zooprofilattico di Brescia, Brescia, Italy) were diluted to 10^6 cells/mL in RPMI 1640 containing 2 mM L-glutamine, 0.1 mg/mL streptomycin, 100 IU/mL penicillin, 50 μM 2-mercaptoethanol, and supplemented with 10% heat-inactivated fetal calf serum (media) and cultured at 37 °C in 5% CO2. The experiments were carried out on passages 3–12. To evaluate IL-8 and TNF-α production, cultures were set up in 24-well culture plates containing 500 μL of cells. They were pretreated with selected NOD antagonists at increasing concentrations for 1 h before the addition of either MDP or C12-iE-DAP (both at 10 µM) and then incubated for 20 h. Each concentration was tested in duplicate, and untreated cells were exposed to DMSO, which represented the vehicle control (not exceeding 0.2% final concentration). […] Cell-free supernatants were collected at 20 h by centrifugation at 3000 rpm for 5 min and stored at −80 °C.

[7] = test system: NOD1/2–TLR4 synergy; test: NOD1/2–TLR4 synergy: TNF-α release from co-stimulated THP-1 cells; type: cell-based, human; conditions: antagonist 10 µM 1 h, NOD agonist 10 µM + LPS 1 ng/mL, 20 h
Method: Figure 5 Effect of selected NOD1/NOD2 antagonists on NOD1/2–TLR4 synergy. The THP-1 cells were preincubated for 1 h with NOD antagonists (at 10 µM) before being stimulated with either C12-iE-DAP or MDP (both at 10 µM) and 1 ng/mL LPS for 20 h, followed by determination of TNF-α release in the supernatant. Columns represent means of duplicates ± SD of three independent experiments. * p < 0.05, ** p < 0.01 and *** p < 0.001 vs. MDP/LPS- or C12-iE-DAP/LPS-treated cells (Kruskal-Wallis test and post hoc Dunn’s multiple comparison test).
For all experiments, THP-1 cells (Istituto Zooprofilattico di Brescia, Brescia, Italy) were diluted to 10^6 cells/mL in RPMI 1640 containing 2 mM L-glutamine, 0.1 mg/mL streptomycin, 100 IU/mL penicillin, 50 μM 2-mercaptoethanol, and supplemented with 10% heat-inactivated fetal calf serum (media) and cultured at 37 °C in 5% CO2. The experiments were carried out on passages 3–12. To evaluate IL-8 and TNF-α production, cultures were set up in 24-well culture plates containing 500 μL of cells. […]
as §2, with “Results are expressed in pg/mL. The limit of detection was 15.6 pg/mL for IL-8 and 4 pg/mL for TNF-α.” left out

T1 sequence (Q9HC29 whole entry): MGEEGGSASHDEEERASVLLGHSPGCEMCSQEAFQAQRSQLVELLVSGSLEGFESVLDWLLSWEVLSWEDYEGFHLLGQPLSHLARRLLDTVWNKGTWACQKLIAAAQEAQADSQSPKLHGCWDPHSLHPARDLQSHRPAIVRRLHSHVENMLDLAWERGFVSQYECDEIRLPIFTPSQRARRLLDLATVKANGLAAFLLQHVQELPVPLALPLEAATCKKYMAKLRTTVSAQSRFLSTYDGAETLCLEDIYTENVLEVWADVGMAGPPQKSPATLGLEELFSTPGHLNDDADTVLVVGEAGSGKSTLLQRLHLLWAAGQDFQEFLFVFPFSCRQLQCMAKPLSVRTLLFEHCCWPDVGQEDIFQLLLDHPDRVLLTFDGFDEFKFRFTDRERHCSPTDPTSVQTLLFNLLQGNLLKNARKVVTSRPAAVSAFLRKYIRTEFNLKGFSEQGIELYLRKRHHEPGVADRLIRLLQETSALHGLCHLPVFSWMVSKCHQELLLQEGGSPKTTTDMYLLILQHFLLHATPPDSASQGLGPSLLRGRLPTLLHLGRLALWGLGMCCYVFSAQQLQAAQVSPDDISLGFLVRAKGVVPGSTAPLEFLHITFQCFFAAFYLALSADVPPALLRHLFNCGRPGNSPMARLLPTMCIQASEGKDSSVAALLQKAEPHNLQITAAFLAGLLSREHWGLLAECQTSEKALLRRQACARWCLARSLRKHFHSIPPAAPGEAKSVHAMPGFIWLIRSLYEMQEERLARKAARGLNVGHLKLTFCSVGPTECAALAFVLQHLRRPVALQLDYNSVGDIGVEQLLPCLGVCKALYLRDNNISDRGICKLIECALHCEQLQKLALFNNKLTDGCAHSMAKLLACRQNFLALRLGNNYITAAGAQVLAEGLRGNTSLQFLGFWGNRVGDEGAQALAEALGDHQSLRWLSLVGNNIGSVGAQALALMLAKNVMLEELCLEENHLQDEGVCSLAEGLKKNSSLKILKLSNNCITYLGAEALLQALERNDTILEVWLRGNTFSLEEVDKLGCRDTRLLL

| SMILES | IC50 [3] | IC50 [6] | TNF-α release from naive THP-1 cells [1] | IL-8 release from naive THP-1 cells [1] | effect on LPS-induced TNF-α production [1] | concentrations showing cytotoxicity (LDH leakage) [2] | IC50 [4] | IC50 [5] | effect on TNF-α release from co-stimulated cells [7] |
| --- | --- | --- | --- | --- | --- | --- | --- | --- | --- |
| CC(=O)N[C@H]1C(O)O[C@H](CO)[C@@H](O)[C@@H]1O[C@H](C)C(=O)N[C@@H](C)C(=O)N[C@H](CCC(=O)O)C(N)=O (mixture of isomers) [MDP, muramyl dipeptide] |  |  | neither MDP nor C12-iE-DAP produced substantial TNF-α release | dose-dependent increase in IL-8 release | significantly potentiated the production of TNF-α |  |  |  |  |
| CCCCCCCCCCCC(=O)N[C@H](CCC(=O)N[C@@H](CCC[C@@H](N)C(=O)O)C(=O)O)C(=O)O [C12-iE-DAP, lauroyl-γ-D-glutamyl-meso-diaminopimelic acid] |  |  | neither MDP nor C12-iE-DAP produced substantial TNF-α release | dose-dependent increase in IL-8 release | significantly potentiated the production of TNF-α |  |  |  |  |
| CCOC(=O)c1cc2ccccc2n1S(=O)(=O)c1ccc(C)cc1 [SZA-39] | 14.4 ± 1.97 µM | 27.5 ± 6.85 µM |  |  |  |  | 5.74 µM | 6.45 µM |  |

Now from value to compound, other results behind:

| IC50 [3] | IC50 [6] | SMILES | TNF-α release from naive THP-1 cells [1] | IL-8 release from naive THP-1 cells [1] | effect on LPS-induced TNF-α production [1] | concentrations showing cytotoxicity (LDH leakage) [2] | IC50 [4] | IC50 [5] | effect on TNF-α release from co-stimulated cells [7] |
| --- | --- | --- | --- | --- | --- | --- | --- | --- | --- |
| 1.57 ± 0.15 µM | > 50 µM | O=C(Cn1c(CCNC(=O)c2ccccc2)nc2ccccc21)Nc1ccc2c(c1)CCC2 [GSK669] |  |  |  | ≥ 10 µM | > 50 µM | 3.2 µM | reduced TNF-α release to the level induced by the TLR4 agonist alone |
| > 50 µM |  | Cc1ccc(S(=O)(=O)n2c(N)nc3ccccc32)cc1 [ML130] |  |  |  |  |  | 54.9 µM |  |
| 32.2 ± 5.16 µM | 10.5 ± 1.32 µM | C/C=C/Cn1c(=O)c2[nH]c(SCCCc3ccccc3)nc2n(C)c1=O [ML146] |  |  |  |  | 4.35 µM | 12.9 µM |  |

From paper PMC6747088, “THP-1 Cells and Pro-Inflammatory Cytokine Production: An In Vitro Tool for Functional Characterization of NOD1/NOD2 Antagonists” (International Journal of Molecular Sciences, 2019)
